In EP1170012A1, “CEREBROVASCULAR REGENERATION/RECONSTRUCTION PROMOTERS AND NERVE TISSUE SECONDARY DEGENERATION INHIBITORS COMPRISING GINSENOSIDE RB 1?” (priority 1999, dated 2000):
Read-outs that look alike come from different tables or passages of the source. Marks after values point to notes of the source that are not given here.

Legend:
SH-SP) rats = settings: cited from earlier work
[1] = test system: apoptosis-like nerve cell death; settings: 1 fg/ml to 100 fg/ml; cited from earlier work
gerbils = settings: cited from earlier work
rats [2] = settings: rat, in vivo; cited from earlier work
rats [3] = settings: rat, in vivo
Text: It has also been reported that no effects of intracerebroventricular administration of ginsenoside Rb1 on brain temperature, cerebral blood flow and blood pressure are observed (Lim J.-H. et al. Neurosci. Res., 28, 191-200, 1997; Zhang B. et al., J. Stroke Cerebrovasc. Dis., 7, 1-9, 1998).

[4] = test system: normal cultured nerve cells or neurons; settings: cited from earlier work
SH-SP rats [5] = assay: Secondary degeneration of the thalamus: thalamic area ratio and nerve cell count in the VP thalamic nucleus; type: in vivo; settings: mean ± SE; for ratio of area (%), left thalamic area to right thalamic area: ischemic side/intact side × 100, p < 0.05; for count of nerve cells: per 0.099 mm^2 of the ventral posterior nucleus of the thalamus, p < 0.01
Method: Further, paraffin sections prepared from brain samples at the level 3.6 mm posterior to bregma were subjected to Nissl staining, and the ratio of the left thalamic area to the right thalamic area (ischemic side/intact side × 100) at the same level was measured. […] In addition, we have investigated the histological patterns of the ventral posterior nucleus of the thalamus (VP thalamic nucleus) which has reciprocal synaptic connections (fiber connections) with the ischemic core of the cerebral cortex. […] […] Data are represented as mean ± SE. Statistical analyses were conducted by Mann-Whitney U-test. In Table 2, *: p < 0.05, **: p < 0.01.

Bcl-XL = settings: 1 fg/ml to 100 fg/ml; cited from earlier work
cultured nerve cells = settings: 1 - 100 fg/ml in culture medium; cited from earlier work
SH-SP rats [6] = assay: Ratio of cerebrovascular area in the non-infarcted ischemic penumbra of the parietal lobe; type: in vivo; settings: for ischemic side (%), ratio of the cerebrovascular area: non-infarcted ischemic penumbra; for ischemic side (%), ratio of the cerebrovascular area / intact side (%), ratio of the cerebrovascular area: mean ± SE, N = 5; for intact side (%), ratio of the cerebrovascular area: per 1.27 mm^2
Text: Next, we prepared paraffin sections, 5 µm thickness, obtained from brain samples at the level about 2.8 mm posterior to the bregma. Then, we measured the cerebrovascular area per 1.27 mm^2 of the non-infarcted ischemic penumbra in the parietal lobe. This was done for each of the cerebral hemisphere of a group to which ginsenoside Rb1 had been administered intravenously (i.e. the brain tissues had been rescued by administration of ginsenoside Rb1) (Fig. 5). Four sheets of differential interference contrast micrograph were used for measurement (Fig. 6), and the ratio of the cerebrovascular area was calculated (Table 1).
The isolated brain was embedded in paraffin, and paraffin sections, 5µm thick, at the level approximately 2.8 mm posterior to bregma including the cerebrocortical infarct lesion were prepared. Then, we measured the cerebrovascular area per 1.27 mm^2 of the ischemic penumbra rescued by intravenous administration of ginsenoside Rb1. This was done for each of the cerebral hemispheres of the groups to which ginsenoside Rb1 had been administered intravenously (i.e. the brain tissues had been rescued by administering ginsenoside Rb1) (Fig. 5). Four sheets of differential interference contrast micrograph were used for measurement (Fig. 6), and the ratio of the cerebrovascular area was calculated (Table 1). The ratio of cerebrovascular area was also measured in the control hemisphere (intact side).
Fig. 5 is a drawing showing the region for measurement of blood vessel area in the non-infarcted ischemic penumbra of the parietal lobe in a 5µm thick section of the brain. In Fig. 5, the part enclosed with a rectangle is the region for measurement of blood vessel area: cerebrocortical layers II - IV of the parietal lobe; the part painted with black in Fig. 5 is the infarct lesion when ginsenoside Rb1 was administered; and the part shown in gray in Fig. 5 is the infarcted lesion when physiological saline was administered.
Data are represented by mean ± SE. Statistical analyses are conducted by ANOVA + Fisher's PLSD. N = 5.

lipid peroxides = settings: cited from earlier work
[7] = test system: glutamate-mediated neurotoxicity; settings: cited from earlier work
[8] = in vivo, po; cited from earlier work
SH-SP rats [9] = type: in vivo; settings: for learning disability in the water maze tests: also 1st day at the 4th week
Method: (§1) First, we examined the actions of intravenous infusion of ginsenoside Rb1. For this purpose, for example, male SH-SP rats, weighing 250 - 300 g at the age of 12-13 weeks were used. The animals were bred in an air-conditioned room with a 12:12 hour light-dark cycle, and water and feeds were supplied ad libitum. The cortical branch of the left middle cerebral artery (MCA) was coagulated and cut under inhalation anesthesia.
After MCA permanent occlusion, according to the method of the inventors of the present invention (Sakanaka and Tanaka) (Igase, K. et al., J. Cereb. Blood Flow Metab., 19, 298-306, 1999; Zhang B. et al., J. Stroke Cerebrovasc. Dis., 7, 1-9, 1998), water maze tests were performed for 4 days at the 2nd week and the 4th week, respectively, and the place navigation abilities of SH-SP rats were determined.
(§2) Male SH-SP rats, at the age of 12-13 weeks, (stroke-prone spontaneously hypertensive rat: weighing 250 - 300 g), were used. Animals were housed in an air-conditioned room furnished with a 12:12 hour light-dark cycle, and water and feeds were supplied ad libitum. The mean blood pressure of the animals was 203±6.9 mmHg. The following experiments were conducted in accordance with the Guide for Animal Experimentation at Ehime University School of Medicine. The cortical branch of the left middle cerebral artery (MCA) of SH-SP rats were coagulated and cut, while their rectal temperature was maintained at 37±0.2°C under inhalation anesthesia.
Immediately after MCA permanent occlusion, […] of physiological saline containing ginsenoside Rb1 at a concentration of 1µg/µl or 0.1µg/µl (60µg or 6µg as ginsenoside Rb1) was injected once into the left femoral vein. Then a catheter connected to the Alza osmotic minipump implanted subcutaneously in the back of each animal was inserted into the same vein from the point of the single injection of ginsenoside Rb1. Physiological saline containing ginsenoside Rb1 was filled in advance in the said osmotic minipump, and ginsenoside Rb1 in a dose of 60µg/day or 6µg/day was continuously infused into the blood stream through the catheter placed in the left femoral vein for 28 days. Flow rate of the ginsenoside Rb1-containing solution was 0.25µl/hour. Control animals with MCA permanent occlusion (ischemic control animals) and sham-operated animals received the same amount of physiological saline.
After the MCA permanent occlusion according to the method of the inventors of the present invention (Sakanaka and Tanaka) (Igase, K. et al., J. Cereb. Blood Flow Metab., 19, 298-306, 1999; Zhang B. et al., J. Stroke Cerebrovasc. Dis., 7, 1-9, 1998), water maze tests were performed for 4 days at the 2nd week and the 4th week, respectively, and place navigation abilities of the SH-SP rats were determined.

[10] = in vivo; cited from earlier work
SH-SP rats [11] = assay: Ratio of cerebrocortical infarction after MCA permanent occlusion, intravenous infusion; type: in vivo
Method: as §1
After the water maze tests at the 4th week, the SH-SP rats were anesthetized with chloral hydrate, and they were perfused and fixed transcardially with 0.1 mole phosphate buffer containing 4% paraformaldehyde. The brains were dissected out and cerebrocortical infarcted areas were photographed. Areas of the left cerebral hemispheres and the left cerebrocortical infarct lesions were measured on the photographs by using an image analysis device. The left cerebrocortical infarcted areas were divided by the left cerebral hemispheric areas to calculate ratios of the cerebrocortical infarction (%).
as §2, with “anesthesia. […]” for “anesthesia.”
After termination of the water maze tests at the 4th week, the SH-SP rats were anesthetized with chloral hydrate, and they were perfused and fixed transcardially with 0.1 mole phosphate buffer containing 4% paraformaldehyde. […] Areas of the left cerebral hemispheres and the left cerebrocortical infarct lesions were measured on the photographs by using an image analysis device. […]

[12] = 6µg/day intravenous for 28 days after MCA permanent occlusion
[13] = 60µg/day intravenous for 28 days after MCA permanent occlusion

Method for Wistar rats: We used Wistar rats, (weighing about 300 g), which were loaded with 20 g of compression to the lower thoracic cord for 20 minutes, as an animal model for spinal cord injuries. The rats were anesthetized by inhalation of halothane in a mixture of nitrous oxide and oxygen and were loaded with 20 g of compression to the lower thoracic cord for 20 minutes. More than 30 minutes later, ginsenoside Rb1 dissolved in physiological saline was infused once into the left femoral vein (12 µg or 60 µg). Subsequently continuous intravenous administration of ginsenoside Rb1 was performed for 7 days by using an Alza osmotic minipump (12µg/day or 60µg/day). Control animals' and sham-operated animals were administered with the same amount of physiological saline (vehicle). The open field locomotor scores [Basso, Bettie and Bresnakan (BBB) scores] were measured before the loading of spinal cord injury, on the day of spinal cord injury, and from the 1st day to the 7th day after spinal cord injury in order to determine an index of motor functions (Basso D.M. et al., J. Neurotrauma, 13, 343-359, 1996). […] The rats were anesthetized with inhalation of halothane in a mixture of nitrous oxide and oxygen and were loaded with 20 g of compression to the lower thoracic cord for 20 minutes. More than 30 minutes later, ginsenoside Rb1 dissolved in physiological saline was injected once into the left femoral vein (12µg or 60µg), thereafter continuous intravenous administration of ginsenoside Rb1 was performed for 7 days by using an Alza osmotic minipump (12µg/day or 60µg/day). Control animals and sham-operated animals were administered with the same amount of physiological saline (vehicle). The open field locomotor scores [Basso, Bettie and Bresnakan (BBB) scores] were measured before loading spinal cord injury, on the day of spinal cord injury and from the 1st day to the 7th day after the spinal cord injury for use as an index of motor functions (Basso D.M. et al., J. Neurotrauma, 13, 343-359, 1996).

CC(C)=CCC[C@](C)(O[C@@H]1O[C@H](CO[C@@H]2O[C@H](CO)[C@@H](O)[C@H](O)[C@H]2O)[C@@H](O)[C@H](O)[C@H]1O)[C@H]1CC[C@]2(C)[C@@H]1[C@H](O)C[C@@H]1[C@@]3(C)CC[C@H](O[C@@H]4O[C@H](CO)[C@@H](O)[C@H](O)[C@H]4O[C@@H]4O[C@H](CO)[C@@H](O)[C@H](O)[C@H]4O)C(C)(C)[C@@H]3CC[C@]12C [ginsenoside Rb1, Ginsenoside Rb1]
effect on cerebral infarction (SH-SP) rats; continuous intracerebroventricular infusion 0.6µg/day after MCA occlusion): significant suppressive effect | effect on cerebral infarction (SH-SP) rats; continuous intracerebroventricular infusion 6µg/day or 0.06µg/day after MCA permanent occlusion): no therapeutic effect | apoptosis-like nerve cell death [1]: suppresses apoptosis-like nerve cell death | delayed neuronal death and learning disability (gerbils; intracerebroventricular infusion starting immediately after 3 or 3.5 minutes carotid occlusion): suppresses the delayed neuronal death and learning disability | hippocampal CA1 pyramidal neurons rescued (gerbils; intraperitoneal 10 mg/kg/day or 20 mg/kg/day before ischemic loading): about 30% | delayed neuronal death and learning disability (gerbils; intraperitoneal 10 or 20 mg/kg/day once a day for one week in advance, 5 minutes carotid occlusion): significantly prevent | effect of administration after the ischemic insult (gerbils; intraperitoneal, after the ischemic insult): no effect | brain temperature, cerebral blood flow and blood pressure (rats [2]): no effects | adverse effects (rats [3]): No adverse effects were detected | normal metabolic activity of cultured nerve cells [4]: no effect on normal metabolic activity | SNP-induced injuries ([4]; low extracellular concentrations (1 - 100 fg/ml)): protects only nerve cells against SNP-induced injuries | ratio of area (%), left thalamic area to right thalamic area (SH-SP rats [5]; 6µg/day intravenous): 95.9 ± 3.3* % | count of nerve cells (SH-SP rats [5]; 6µg/day intravenous): 30.6 ± 2.9** | ratio of area (%), left thalamic area to right thalamic area (SH-SP rats [5]; 60µg/day intravenous): 95.3 ± 2.4* % | count of nerve cells (SH-SP rats [5]; 60µg/day intravenous): 31.5 ± 3.6** | expression of Bcl-XL (Bcl-XL): increasing the expression | neuronal necrosis caused by ferrous sulfate (cultured nerve cells): reduces neuronal necrosis | ratios of the cerebrovascular areas, control side versus ischemic side (SH-SP rats [6]; 6µg/day and 60 µg/day intravenous, 28 days after MCA permanent occlusion): no significant difference | ischemic side (%), ratio of the cerebrovascular area (SH-SP rats [6]; [12]): 8.0 ± 0.58% | intact side (%), ratio of the cerebrovascular area (SH-SP rats [6]; [12]): 7.0 ± 0.64% | ischemic side (%), ratio of the cerebrovascular area (SH-SP rats [6]; [13]): 9.0 ± 0.52% | intact side (%), ratio of the cerebrovascular area (SH-SP rats [6]; [13]): 8.3 ± 0.92% | formation of lipid peroxides (lipid peroxides; 100 fg/ml): slightly suppressive action | formation of lipid peroxides (lipid peroxides; lower concentration range than 100 fg/ml): no such effect was observed | neurotoxicity [7]: increased neurotoxicity | glutamate-mediated neurotoxicity ([7]; high concentrations (0.11-11 µg/ml)): reduce glutamate-mediated neurotoxicity | detection in blood [8]: can not be detected in blood | place navigation disability after MCA permanent occlusion (SH-SP rats [9]; 6µg/day or 60µg/day intravenous, compared with physiological saline group): significantly improved | learning disability in the water maze tests (SH-SP rats [9]; high dose (60µg/day), 4th day at the 2nd week, 3rd and 4th days at the 4th week): significantly ameliorated | learning disability in the water maze tests (SH-SP rats [9]; low dose (6µg/day), 3rd and 4th day at the 2nd and 4th week): significantly ameliorated | swimming speed of SH-SP rats (SH-SP rats [9]; rat, in vivo): No significant differences | transfer to the central nervous system [10]: transferred rapidly | motor ability (BBB scores) (Wistar rats; 12µg/day or 60µg/day intravenous, 7th day after spinal cord injuries, dose-dependent): significantly ameliorated | paraplegia of both hindlimbs (Wistar rats; 60 µg/day intravenous after 20 g compression for 20 minutes, after 2 days): significantly ameliorated | wound healing of the dorsal skin incision (Wistar rats; rat, in vivo): no such adverse effects were noted | ratio of cerebrocortical infarction (SH-SP rats [11]; 6µg/day or 60µg/day intravenous for 28 days, compared with physiological saline group): significantly reduced | mean value of the ratio of cerebrocortical infarction compared with that of the physiological saline group (SH-SP rats [11]; groups intravenously administered, about 50% or less): ≤ 50% | actual volume of infarction relative to physiological saline group (SH-SP rats [11]; intravenous administration, inferred from the area ratio): about 1/4
